Measurements as given in article PMC9574867, “Discovery and Characterization of Synthesized and FDA-Approved Inhibitors of Clostridial and Bacillary Collagenases” (Journal of Medicinal Chemistry, 2022).
In brackets after ≈: the same amount, converted by molar mass. Entries after “also recorded” stand apart in the source; their conditions may differ. Read-outs that look alike come from different tables or passages of the source.

Experiments:
[1] = tested on: B. cereus AH187; test: B. cereus growth inhibition assay; type: cell-based; conditions: Bacillus cereus, read-out: MIC50 (µM) AH187
[2] = tested on: B. cereus collagenases released in the NHDF infection model; type: cell-based, B. cereus AH187
[3] = tested on: NHDF cells infected with B. cereus; test: NHDF infection model, cell morphology/attachment and fibrillar collagen (picrosirius red); type: cell-based, human; conditions: B. cereus infection, 5 h
[4] = molecular target: ColQ1-FL (Bacillus cereus, UniProt B9J3S4); type: biochemical; conditions: 12.5–1.5 μM tested, SDS-PAGE
Sequence of ColQ1-FL (B9J3S4 94-965 limits assumed): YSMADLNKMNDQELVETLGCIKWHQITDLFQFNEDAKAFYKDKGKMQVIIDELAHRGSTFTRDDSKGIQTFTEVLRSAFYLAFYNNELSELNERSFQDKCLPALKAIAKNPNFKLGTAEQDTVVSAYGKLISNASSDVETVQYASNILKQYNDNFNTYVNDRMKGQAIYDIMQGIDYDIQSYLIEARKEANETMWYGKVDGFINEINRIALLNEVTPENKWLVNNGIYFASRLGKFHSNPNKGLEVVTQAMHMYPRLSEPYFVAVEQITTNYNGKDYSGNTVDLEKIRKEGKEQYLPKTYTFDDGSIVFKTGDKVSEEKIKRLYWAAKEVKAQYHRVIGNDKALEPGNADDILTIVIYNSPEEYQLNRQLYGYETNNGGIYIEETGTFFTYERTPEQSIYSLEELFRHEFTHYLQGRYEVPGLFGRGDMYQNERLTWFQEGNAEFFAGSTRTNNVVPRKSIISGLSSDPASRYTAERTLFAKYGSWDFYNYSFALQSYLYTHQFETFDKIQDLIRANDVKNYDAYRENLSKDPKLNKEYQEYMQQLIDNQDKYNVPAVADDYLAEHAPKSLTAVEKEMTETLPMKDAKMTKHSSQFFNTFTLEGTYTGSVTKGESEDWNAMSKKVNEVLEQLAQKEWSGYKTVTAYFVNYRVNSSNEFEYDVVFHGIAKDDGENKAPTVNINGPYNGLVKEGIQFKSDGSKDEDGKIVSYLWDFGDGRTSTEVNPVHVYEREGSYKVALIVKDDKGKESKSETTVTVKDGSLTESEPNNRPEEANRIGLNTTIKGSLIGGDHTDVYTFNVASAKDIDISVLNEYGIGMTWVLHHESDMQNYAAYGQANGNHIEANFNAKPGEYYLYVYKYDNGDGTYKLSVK

[5] = molecular target: ColQ1-CU (Bacillus cereus, UniProt B9J3S4); test: biochemical; set-up: species or system B. cereus strain Q1
Sequence of ColQ1-CU (B9J3S4 94-765 limits assumed): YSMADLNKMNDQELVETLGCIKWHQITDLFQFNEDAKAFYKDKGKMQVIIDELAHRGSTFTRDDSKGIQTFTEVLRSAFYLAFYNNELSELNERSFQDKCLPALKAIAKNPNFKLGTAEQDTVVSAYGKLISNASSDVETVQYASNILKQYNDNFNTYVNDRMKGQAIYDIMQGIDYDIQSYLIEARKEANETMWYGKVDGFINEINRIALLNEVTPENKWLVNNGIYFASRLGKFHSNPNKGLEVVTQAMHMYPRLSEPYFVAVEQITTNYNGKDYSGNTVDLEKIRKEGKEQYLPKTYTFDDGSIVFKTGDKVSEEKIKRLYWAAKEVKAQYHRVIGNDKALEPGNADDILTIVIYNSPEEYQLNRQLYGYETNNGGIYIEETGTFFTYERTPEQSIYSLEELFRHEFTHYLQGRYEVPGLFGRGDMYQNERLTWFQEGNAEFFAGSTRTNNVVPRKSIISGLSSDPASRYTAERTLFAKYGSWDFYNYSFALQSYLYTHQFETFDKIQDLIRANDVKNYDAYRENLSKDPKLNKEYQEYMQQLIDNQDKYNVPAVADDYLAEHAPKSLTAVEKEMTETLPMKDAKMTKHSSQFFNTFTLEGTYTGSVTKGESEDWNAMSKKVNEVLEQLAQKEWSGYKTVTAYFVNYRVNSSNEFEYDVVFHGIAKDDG

[6] = molecular target: T1, MMP-1 (Homo sapiens, UniProt P03956); test: MMP inhibition assay, MMP-1; type: biochemical
T1 construct: catalytic domains of three human MMPs; purchased Sigma-Aldrich
T1 sequence (P03956 98-276 limits assumed): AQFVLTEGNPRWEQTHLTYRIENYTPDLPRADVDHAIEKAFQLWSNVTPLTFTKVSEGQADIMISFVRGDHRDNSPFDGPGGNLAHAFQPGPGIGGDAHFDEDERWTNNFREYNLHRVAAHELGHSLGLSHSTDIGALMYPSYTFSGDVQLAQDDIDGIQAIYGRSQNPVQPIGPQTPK
Experimental: (§1) To assess the selectivity of the compounds over human MMPs and on other bacterial collagenases, selected compounds were tested against ColG-CU and ColH-PD from C. histolyticum and ColA-CU from B. cereus strain ATCC14579. In addition, the compounds were tested on catalytic domains of three human MMPs, which are characterized by different depths of the S1′ binding pocket (MMP-1 (shallow), −2 (intermediate), and −3 (deep)). They were also tested against other important human off-targets, which are involved in gene expression and the processing of TNF-α; these include HDAC-3, -8, TACE (ADAM-17),[33],[34] and COX-1.
(§2) The MMP inhibition assay (Sigma-Aldrich, Saint Louise, MO) was performed as previously reported and in accordance with the manufacturer’s instructions. The fluorescence signals were measured in a CLARIOstar plate reader (BMG LABTECH, Ortenberg, Germany) at a concentration of 100 μM.

[7] = molecular target: HDAC-3 (Homo sapiens, UniProt O15379); test: Human off-target inhibition, HDAC-3; type: biochemical
Sequence of HDAC-3 (O15379 whole entry): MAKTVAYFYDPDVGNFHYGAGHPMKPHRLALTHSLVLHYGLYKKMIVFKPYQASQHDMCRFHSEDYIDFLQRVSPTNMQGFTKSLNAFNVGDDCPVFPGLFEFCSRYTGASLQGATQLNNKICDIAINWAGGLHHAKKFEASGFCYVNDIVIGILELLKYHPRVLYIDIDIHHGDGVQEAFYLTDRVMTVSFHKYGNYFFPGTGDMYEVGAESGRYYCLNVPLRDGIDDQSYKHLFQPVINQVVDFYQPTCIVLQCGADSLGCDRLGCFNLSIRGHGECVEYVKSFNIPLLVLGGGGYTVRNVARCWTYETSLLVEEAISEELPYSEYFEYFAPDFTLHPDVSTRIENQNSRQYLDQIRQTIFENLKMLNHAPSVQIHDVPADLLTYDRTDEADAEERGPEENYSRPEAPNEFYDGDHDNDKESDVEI
Sequence of HDAC-3 (Q9Y618 395-489 partner limits assumed): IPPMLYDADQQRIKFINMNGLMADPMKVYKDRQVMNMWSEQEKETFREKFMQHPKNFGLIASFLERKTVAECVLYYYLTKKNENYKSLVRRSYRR
Experimental: as §1

[8] = molecular target: T2, MMP-2 (Homo sapiens, UniProt P08253); test: MMP inhibition assay, MMP-2; type: biochemical
T2 construct: catalytic domains of three human MMPs; purchased Sigma-Aldrich
T2 sequence (P08253 110-444 limits assumed): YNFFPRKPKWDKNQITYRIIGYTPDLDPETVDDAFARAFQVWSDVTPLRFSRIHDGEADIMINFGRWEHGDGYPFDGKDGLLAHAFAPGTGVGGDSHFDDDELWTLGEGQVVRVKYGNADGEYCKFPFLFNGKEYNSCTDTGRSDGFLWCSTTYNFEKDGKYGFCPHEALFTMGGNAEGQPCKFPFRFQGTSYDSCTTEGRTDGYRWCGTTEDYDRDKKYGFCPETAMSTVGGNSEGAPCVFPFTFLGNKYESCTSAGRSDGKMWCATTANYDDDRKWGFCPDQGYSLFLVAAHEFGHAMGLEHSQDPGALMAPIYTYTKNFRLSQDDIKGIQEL
Experimental: as §1, §2

[9] = tested on: B. cereus AH187 infection; type: in vivo, Galleria mellonella; conditions: in vivo
[10] = molecular target: ColG-CU (Hathewaya histolytica, UniProt Q9X721); test: biochemical; type: biochemical, C. histolyticum; conditions: read-out: Percent inhibition of ColG-CU
Sequence of ColG-CU (Q9X721 111-786): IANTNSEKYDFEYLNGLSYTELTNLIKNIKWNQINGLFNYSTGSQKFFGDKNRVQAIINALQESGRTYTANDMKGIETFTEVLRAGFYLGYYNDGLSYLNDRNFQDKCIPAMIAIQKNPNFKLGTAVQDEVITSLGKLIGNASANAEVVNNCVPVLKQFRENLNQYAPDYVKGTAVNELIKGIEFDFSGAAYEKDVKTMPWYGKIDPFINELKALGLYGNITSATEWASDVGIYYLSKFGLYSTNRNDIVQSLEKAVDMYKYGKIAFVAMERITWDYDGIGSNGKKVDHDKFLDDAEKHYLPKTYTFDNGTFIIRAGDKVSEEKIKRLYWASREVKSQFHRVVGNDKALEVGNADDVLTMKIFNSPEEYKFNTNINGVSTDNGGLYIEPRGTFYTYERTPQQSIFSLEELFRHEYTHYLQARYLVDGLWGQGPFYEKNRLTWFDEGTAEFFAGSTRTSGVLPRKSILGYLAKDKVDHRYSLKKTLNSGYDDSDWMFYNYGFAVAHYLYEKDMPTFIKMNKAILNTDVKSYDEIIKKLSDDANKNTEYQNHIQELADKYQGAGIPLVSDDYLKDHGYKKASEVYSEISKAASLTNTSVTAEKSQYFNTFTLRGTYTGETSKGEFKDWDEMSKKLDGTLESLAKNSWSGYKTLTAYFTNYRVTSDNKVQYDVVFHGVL

[11] = molecular target: T3, MMP-3 (Homo sapiens, UniProt P08254); test: MMP inhibition assay, MMP-3; type: biochemical
T3 construct: catalytic domains of three human MMPs; purchased Sigma-Aldrich
T3 sequence (P08254 100-272 limits assumed): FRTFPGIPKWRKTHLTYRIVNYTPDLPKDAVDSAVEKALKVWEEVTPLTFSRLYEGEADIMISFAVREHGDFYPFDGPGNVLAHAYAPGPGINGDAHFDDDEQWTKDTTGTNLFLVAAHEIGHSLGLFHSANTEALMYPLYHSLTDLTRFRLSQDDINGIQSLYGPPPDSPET
Experimental: as §1, §2

[12] = molecular target: TACE (ADAM-17) (Homo sapiens, UniProt P78536); test: Human off-target inhibition, TACE; type: biochemical
Sequence of TACE (ADAM-17) (P78536 215-824): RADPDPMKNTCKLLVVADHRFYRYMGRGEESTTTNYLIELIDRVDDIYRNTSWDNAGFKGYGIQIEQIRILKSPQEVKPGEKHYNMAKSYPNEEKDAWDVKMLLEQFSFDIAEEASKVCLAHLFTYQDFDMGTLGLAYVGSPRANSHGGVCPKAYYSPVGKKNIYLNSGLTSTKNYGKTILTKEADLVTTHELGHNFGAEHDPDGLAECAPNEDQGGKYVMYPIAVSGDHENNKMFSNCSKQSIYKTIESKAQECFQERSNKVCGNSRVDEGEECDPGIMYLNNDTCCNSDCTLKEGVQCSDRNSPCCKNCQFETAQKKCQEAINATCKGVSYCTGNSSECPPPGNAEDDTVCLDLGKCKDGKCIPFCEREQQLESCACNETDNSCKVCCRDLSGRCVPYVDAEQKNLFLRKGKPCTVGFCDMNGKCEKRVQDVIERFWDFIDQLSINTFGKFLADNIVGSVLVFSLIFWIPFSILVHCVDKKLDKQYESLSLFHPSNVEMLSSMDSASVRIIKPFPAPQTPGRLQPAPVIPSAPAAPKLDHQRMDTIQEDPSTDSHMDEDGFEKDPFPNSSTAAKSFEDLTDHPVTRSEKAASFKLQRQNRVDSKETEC
Experimental: as §1

[13] = molecular target: T4, HDAC-8 (Homo sapiens, UniProt Q9BY41); test: Human off-target inhibition, HDAC-8; type: biochemical
T4 sequence (Q9BY41 1-377): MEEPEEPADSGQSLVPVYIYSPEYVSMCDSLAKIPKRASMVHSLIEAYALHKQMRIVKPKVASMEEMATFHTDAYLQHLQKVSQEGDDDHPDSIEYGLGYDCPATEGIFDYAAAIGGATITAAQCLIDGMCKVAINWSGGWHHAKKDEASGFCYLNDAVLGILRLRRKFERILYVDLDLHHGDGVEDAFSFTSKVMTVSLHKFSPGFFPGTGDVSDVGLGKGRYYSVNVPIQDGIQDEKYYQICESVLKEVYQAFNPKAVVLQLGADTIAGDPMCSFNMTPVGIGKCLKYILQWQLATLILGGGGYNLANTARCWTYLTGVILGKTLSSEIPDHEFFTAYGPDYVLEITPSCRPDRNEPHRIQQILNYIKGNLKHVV
Experimental: as §1

[14] = molecular target: ColH-PD (Hathewaya histolytica, UniProt Q46085); test: biochemical; type: biochemical, C. histolyticum; conditions: read-out: Percent inhibition of ColH-PD
Sequence of ColH-PD (Q46085 331-721 limits assumed): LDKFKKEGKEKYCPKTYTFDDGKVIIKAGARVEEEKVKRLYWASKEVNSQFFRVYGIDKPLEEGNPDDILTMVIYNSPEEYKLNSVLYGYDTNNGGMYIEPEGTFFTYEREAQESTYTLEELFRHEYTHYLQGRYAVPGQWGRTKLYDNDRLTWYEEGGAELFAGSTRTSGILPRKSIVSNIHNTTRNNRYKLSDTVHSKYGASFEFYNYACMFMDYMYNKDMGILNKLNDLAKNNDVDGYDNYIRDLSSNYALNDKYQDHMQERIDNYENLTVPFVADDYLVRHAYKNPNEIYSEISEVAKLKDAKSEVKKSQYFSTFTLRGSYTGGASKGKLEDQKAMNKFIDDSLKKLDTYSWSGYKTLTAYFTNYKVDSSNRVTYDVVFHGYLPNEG

[15] = molecular target: ColA-CU (Bacillus cereus, UniProt Q81BJ6); test: biochemical; type: biochemical, B. cereus strain ATCC14579; conditions: read-out: Percent inhibition of ColA-CU
Sequence of ColA-CU (Q81BJ6 93-764): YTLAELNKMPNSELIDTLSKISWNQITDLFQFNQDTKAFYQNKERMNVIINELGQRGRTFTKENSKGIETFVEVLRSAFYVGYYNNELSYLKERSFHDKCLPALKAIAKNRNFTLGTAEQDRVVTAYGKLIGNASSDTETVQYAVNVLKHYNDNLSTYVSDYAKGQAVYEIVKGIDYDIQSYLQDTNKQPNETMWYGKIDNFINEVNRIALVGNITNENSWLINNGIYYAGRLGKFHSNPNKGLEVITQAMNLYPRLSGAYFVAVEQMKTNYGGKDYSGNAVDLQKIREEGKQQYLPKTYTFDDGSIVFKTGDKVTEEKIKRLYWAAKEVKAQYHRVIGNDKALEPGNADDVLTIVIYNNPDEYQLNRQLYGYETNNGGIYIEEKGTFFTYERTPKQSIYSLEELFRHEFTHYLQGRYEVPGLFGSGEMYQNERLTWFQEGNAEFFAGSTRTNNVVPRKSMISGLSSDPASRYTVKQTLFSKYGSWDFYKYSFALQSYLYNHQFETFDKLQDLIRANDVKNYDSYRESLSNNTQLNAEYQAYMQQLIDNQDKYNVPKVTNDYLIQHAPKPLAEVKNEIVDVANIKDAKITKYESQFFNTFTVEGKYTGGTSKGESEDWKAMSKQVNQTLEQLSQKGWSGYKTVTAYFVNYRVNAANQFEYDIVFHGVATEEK

Cc1ccc2nc(P(=O)(O)O)c(P(=O)(O)O)nc2c1 [Compound 11, (6-Methylquinoxaline-2,3-diyl)bis(phosphonic acid)]
MIC50 ([1]; AH187, BHI medium, 37 °C, 48 h, 200–3 μM): 200 µM (≈ 60.8 µg/mL) | Inhibitory effect on gelatinolytic activity of secreted collagenases [2]: inhibited the collagenase activity toward gelatin only marginally at 100 μM | Effect on cell morphology and ECM collagen content of infected NHDF cells [3]: smaller effect at all concentrations tested | Protection of Col I chains from cleavage by ColQ1-FL [4]: inhibited the collagenase activity at all concentrations tested | IC50 [5]: 3.4 ± 0.1 µM | inhibition at 100 µM [5]: 58%

O=c1[nH]c2cc(Cl)c(Cl)cc2nc1P(=O)(O)O [Compound 16, (6,7-Dichloro-3-oxo-3,4-dihydroquinoxalin-2-yl)phosphonic Acid]
Protection of Col I chains from cleavage by ColQ1-FL [4]: severe degradation was visible at all tested concentrations | inhibition at 100 µM [5]: < 5% | Inhibition (%) ([5]; 100 μM): 16; O=P(O)(O)C2=NC1=CC(Cl)=C(Cl)C=C1NC2=O; 5 ± 2%

CC(C)CC(C(=O)NO)C(=O)NCCn1cc(COc2ccccc2F)nn1 (stereo not shown) [Compound 30, N-[2-[4-[(2-Fluorophenoxy)methyl]triazol-1-yl]ethyl]-2-(hydroxycarbamoyl)-4-methyl-pentanamide]
Inhibitory effect on gelatinolytic activity of secreted collagenases [2]: no inhibitory effect on the collagenase in the zymography at all tested concentrations | IC50 [5]: 16.2 ± 0.8 µM | inhibition at 100 µM [5]: 92%

O=P(O)(O)c1nc2ccc(F)cc2nc1P(=O)(O)O [Compound 8, (6-Fluoroquinoxaline-2,3-diyl)bis(phosphonic acid)]
Inhibition (%) ([5]; 100 μM): 8; O=P(O)(O)C2=NC1=CC(F)=CC=C1N=C2P(O)(O)=O; 38 ± 3%

CC(=O)Nc1cccc(OCc2cn(CCNC(=O)C(CC(C)C)C(=O)NO)nn2)c1 (stereo not shown) [Compound 28, N-[2-[4-[(3-Acetamidophenoxy)methyl]triazol-1-yl]ethyl]-2-(hydroxycarbamoyl)-4-methyl-pentanamide]
Inhibitory effect on gelatinolytic activity of secreted collagenases [2]: no inhibitory effect on the collagenase in the zymography at all tested concentrations; also recorded: no inhibition of the collagenase in the gelatin zymography was detected | Effect on cell morphology and ECM collagen content of infected NHDF cells [3]: neither able to rescue cell morphology nor able to maintain the collagen content of the ECM | Protection of Col I chains from cleavage by ColQ1-FL [4]: severe degradation was visible at all tested concentrations | IC50 [5]: 35 ± 1 µM

O=P(O)(O)C(O)(Cc1cccnc1)P(=O)(O)O [Risedronate sodium, reference compound]
inhibition at 100 µM [5]: < 5%

CCCCCN(C)CCC(O)(P(=O)(O)O)P(=O)(O)O [Ibandronate sodium, reference compound]
inhibition at 100 µM [5]: < 5%

CC(=O)Nc1ccc(OCc2cn(CCNC(=O)C(CC(C)C)C(=O)NO)nn2)cc1 (stereo not shown) [Compound 29, N-[2-[4-[(4-Acetamidophenoxy)methyl]triazol-1-yl]ethyl]-2-(hydroxycarbamoyl)-4-methyl-pentanamide]
Inhibitory effect on gelatinolytic activity of secreted collagenases [2]: no inhibitory effect on the collagenase in the zymography at all tested concentrations; also recorded: no inhibition of the collagenase in the gelatin zymography was detected | Effect on cell morphology and ECM collagen content of infected NHDF cells [3]: neither able to rescue cell morphology nor able to maintain the collagen content of the ECM | Protection of Col I chains from cleavage by ColQ1-FL [4]: severe degradation was visible at all tested concentrations | IC50 [5]: 35 ± 3 µM

O=P(O)(O)C(Cl)(Cl)P(=O)(O)O [Clodronate disodium, reference compound]
inhibition at 100 µM [5]: < 5%

CC(C)CC(C(=O)NO)C(=O)NCCn1cc(COc2ccccc2)nn1 (stereo not shown) [Compound 31, 2-(Hydroxycarbamoyl)-4-methyl-N-[2-[4-(phenoxymethyl)triazol-1-yl]ethyl]pentanamide]
Inhibitory effect on gelatinolytic activity of secreted collagenases [2]: no inhibitory effect on the collagenase in the zymography at all tested concentrations; also recorded: no inhibition of the collagenase in the gelatin zymography was detected | Effect on cell morphology and ECM collagen content of infected NHDF cells [3]: neither able to rescue cell morphology nor able to maintain the collagen content of the ECM | Protection of Col I chains from cleavage by ColQ1-FL [4]: severe degradation was visible at all tested concentrations | IC50 [5]: 12 ± 1 µM

CCOP(=O)(OCC)c1nc2ccc(C)cc2nc1P(=O)(OCC)OCC [Compound 11c, tetraethyl (6-methylquinoxaline-2,3-diyl)bis(phosphonate)]
inhibition at 100 µM [5]: < 5% | Inhibition (%) ([5]; 100 μM): 11c; O=P(OCC)(OCC)C2=NC1=CC(C)=CC=C1N=C2P(OCC)(OCC)=O; 8 ± 4%

CCOP(=O)(OCC)c1nc2ccccc2nc1P(=O)(OCC)OCC [Compound 7c, Tetraethyl Quinoxaline-2,3-diylbis(phosphonate)]
inhibition at 100 µM [5]: < 5% | Inhibition (%) ([5]; 100 μM): 7c; O=P(OCC)(OCC)C2=NC1=CC=CC=C1N=C2P(OCC)(OCC)=O; 3 ± 2%

O=P(O)(O)c1nc2ccc(Cl)cc2nc1P(=O)(O)O [Compound 9, (6-Chloroquinoxaline-2,3-diyl)bis(phosphonic acid)]
IC50 [5]: 4 ± 0.6 µM

CCOP(=O)(OCC)c1nc2ccc(OC)cc2nc1P(=O)(OCC)OCC [Compound 12c, tetraethyl (6-methoxyquinoxaline-2,3-diyl)bis(phosphonate)]
% Inhibition ([5]; 100 μM): n.i. (key: n.i.: no inhibition (percent inhibition < 5%)) | Inhibition (%) ([5]; 100 μM): 12c; O=P(OCC)(OCC)C2=NC1=CC(OC)=CC=C1N=C2P(OCC)(OCC)=O; 0 ± 2%

NCCCCCC(O)(P(=O)(O)O)P(=O)(O)O [Neridronate, reference compound]
inhibition at 100 µM [5]: < 5%

O=P(O)(O)c1nc2ccccc2nc1P(=O)(O)O [Compound 7, Quinoxaline-2,3-diylbis(phosphonic acid)]
inhibition at 100 µM [5]: 40 ± 7%

COc1ccc2nc(P(=O)(O)O)c(P(=O)(O)O)nc2c1 [Compound 12, (6-Methoxyquinoxaline-2,3-diyl)bis(phosphonic acid)]
inhibition at 100 µM [5]: 23 ± 6%

NCCCC(O)(P(=O)([O-])O)P(=O)(O)O.[Na+] [Alendronate sodium, reference compound]
MIC50 ([1]; AH187, 48 h): 200 µM | IC50 [6]: > 100 µM | IC50 [7]: > 100 µM | IC50 [8]: > 100 µM | Increase in survival of infected larvae [9]: 40% | Survival of infected larvae vs control without inhibitor [9]: ameliorated the survival of the larvae in a dose-dependent manner | inhibition at 100 µM [10]: 28 ± 7% | IC50 [11]: > 100 µM | IC50 [12]: > 100 µM | IC50 [13]: > 100 µM | inhibition at 100 µM [14]: 25 ± 5% | inhibition at 100 µM [15]: 18 ± 4% | inhibition at 100 µM [5]: 76 ± 1%

CC(C)CC(C(=O)NO)C(=O)NCCn1cc(CSc2ccccc2)nn1 (stereo not shown) [Compound 32, 2-(Hydroxycarbamoyl)-4-methyl-N-[2-[4-(phenylsulfanylmethyl)triazol-1 yl]ethyl]pentanamide]
Inhibitory effect on gelatinolytic activity of secreted collagenases [2]: no inhibitory effect on the collagenase in the zymography at all tested concentrations; also recorded: no inhibition of the collagenase in the gelatin zymography was detected | Effect on cell morphology and ECM collagen content of infected NHDF cells [3]: neither able to rescue cell morphology nor able to maintain the collagen content of the ECM | Protection of Col I chains from cleavage by ColQ1-FL [4]: severe degradation was visible at all tested concentrations | IC50 [5]: 10.1 ± 0.9 µM
